Results as given in patent US4254278A, “1-Descarboxy-1-ketoester (ketoacid)-prostaglandins” (American Cyanamid Company, priority 1979, dated 1981).

How the values were obtained:
Assay type in all cases: in vivo, guinea pigs
[1] = tested on: bronchospasms elicited by 5-hydroxytryptamine; assay: Bronchodilator activity against 5-hydroxytryptamine-induced bronchospasm (Konzett procedure); conditions: guinea pig; 5-hydroxytryptamine spasmogen; three logarithmic cumulative intravenous doses
Protocol: (§1) The compounds of this invention are useful as bronchodilators for the treatment of asthma and chronic bronchitis. Bronchodilator activity is determined in guinea pigs against bronchospasms elicited by intravenous injections of 5-hydroxytryptamine, histamine or acetylcholine by the Konzett procedure. [See J. Lulling, P. Lievens, F. El Sayed and J. Prignot, Arzneimittel-Forschung, 18, 955 (1968).]
(§2) In Table which follows bronchodilator activity for representative compounds of this invention against one or more of three spasmogenic agents is expressed as an ED50 determined from the results obtained with three logarithmic cummulative intravenous doses. In this assay, these compounds of this invention provide an effect of longer duration than does natural 1-PGE1 or 1-PGE2.

[2] = tested on: bronchospasms elicited by histamine; assay: Bronchodilator activity against histamine-induced bronchospasm (Konzett procedure); conditions: guinea pig; histamine spasmogen; three logarithmic cumulative intravenous doses
Protocol: as §1, §2

[3] = tested on: bronchospasms elicited by acetylcholine; assay: Bronchodilator activity against acetylcholine-induced bronchospasm (Konzett procedure); conditions: guinea pig; acetylcholine spasmogen; three logarithmic cumulative intravenous doses
Protocol: as §1, §2

Row | Compound | ED50 5HT [1] | ED50 HIST. [2] | ED50 ACH [3]
1 | CCCCCC(C)(O)/C=C/C1C(O)CC(=O)C1CCCCCCC(=O)C(=O)OCC (stereo not drawn) [d1-1,9-dioxo-1-carbethoxy-11α,15-dihydroxy-15-methyl-13-trans-prostene] | 4220 Mg/kg × 10^-6 | 6050 Mg/kg × 10^-6 | > 3.2 Mg/kg × 10^-6
2 | CCCCC(C)(O)C/C=C/C1C(O)CC(=O)C1/C=C\CCCCC(=O)C(=O)OCC (stereo not drawn) [d1-1,9-dioxo-1-carbethoxy-11α,16-dihydroxy-16-methyl-6-cis-13-trans-prostadiene] | 9510 Mg/kg × 10^-6 | 9310 Mg/kg × 10^-6 | 5920 Mg/kg × 10^-6
